A word on the Kd: it is the equilibrium constant for the complex coming apart. A low value points to higher affinity.

The target of the test is Serine/threonine-protein kinase B-raf (Homo sapiens, UniProt P15056).
Chain of Serine/threonine-protein kinase B-raf (P15056 whole entry): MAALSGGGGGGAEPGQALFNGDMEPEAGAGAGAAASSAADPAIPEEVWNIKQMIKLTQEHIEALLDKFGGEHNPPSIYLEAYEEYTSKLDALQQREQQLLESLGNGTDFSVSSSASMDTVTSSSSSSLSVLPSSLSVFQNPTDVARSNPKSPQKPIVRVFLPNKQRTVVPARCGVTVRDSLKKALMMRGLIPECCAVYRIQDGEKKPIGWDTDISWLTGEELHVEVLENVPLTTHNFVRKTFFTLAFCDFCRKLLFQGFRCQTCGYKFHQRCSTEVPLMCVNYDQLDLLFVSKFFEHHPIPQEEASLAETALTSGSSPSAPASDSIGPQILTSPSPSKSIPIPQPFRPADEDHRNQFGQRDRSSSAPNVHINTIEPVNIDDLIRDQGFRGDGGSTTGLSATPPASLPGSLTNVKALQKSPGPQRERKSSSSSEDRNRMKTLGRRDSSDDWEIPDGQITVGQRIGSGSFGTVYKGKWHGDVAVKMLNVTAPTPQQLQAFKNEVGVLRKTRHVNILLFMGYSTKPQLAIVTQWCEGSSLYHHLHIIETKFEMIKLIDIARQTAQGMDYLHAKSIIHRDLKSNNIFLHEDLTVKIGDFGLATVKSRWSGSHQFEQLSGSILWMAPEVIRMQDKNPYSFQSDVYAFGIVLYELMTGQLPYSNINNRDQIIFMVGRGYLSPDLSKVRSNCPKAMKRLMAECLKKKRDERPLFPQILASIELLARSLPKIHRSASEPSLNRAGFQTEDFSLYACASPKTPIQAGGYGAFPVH
Description: Inhibition of BRAF by high-throughput assay
As for `Nc1nc(Nc2cccc(O)c2)c2[nH]cnc2n1`, binding was put at a Kd of 5.8 µM.
Then `O=C(O)c1ccc(Nc2ncnc3nc[nH]c23)cc1`, with 9.4 µM; and `Nc1nc(Nc2cccc(C(F)(F)F)c2)c2[nH]cnc2n1`, with 1.7 µM; and `Nc1nc(Nc2cccc(F)c2)c2[nH]cnc2n1`, with 4.8 µM.
The molecule `NS(=O)(=O)c1ccc(Nc2nncc3c(-c4ccc(O)cc4)cccc23)cc1` returned a Kd of 4.7 µM.
`Cc1ccc(Nc2nncc3c(-c4ccc(O)cc4)cccc23)cc1` had a Kd of 4.7 µM.
In turn, `NC(=O)Cc1ccc(Nc2nncc3c(-c4ccc(O)cc4)cccc23)cc1` came in with a Kd of 8 µM.
Then `Nc1nc(Nc2ccc(Cl)c(Cl)c2)c2nc[nH]c2n1`, with 3.6 µM.
Next, `Nc1nc(Nc2cccc(Br)c2)c2[nH]cnc2n1`: 2.2 µM; `Nc1nc(Nc2ccccc2O)c2[nH]cnc2n1`: 2 µM; `Nc1nc(Nc2cccc(Cl)c2)c2nc[nH]c2n1`: 3 µM.
`CC(=O)Nc1ccc(Nc2ncnc3nc[nH]c23)cc1` came in with a dissociation constant (Kd) of 0.79 µM.
In turn, `COc1ccc(Nc2nncc3c(-c4ccc(O)cc4)cccc23)cc1` returned a dissociation constant (Kd) of 3.7 µM.
In turn, `COc1ccc(Nc2nc(N)nc3[nH]cnc23)cc1OC` returned a Kd of 5.1 µM.
Next, `COc1cc(Nc2nc(N)nc3nc[nH]c23)cc(OC)c1OC`: 4.1 µM; `c1nc2c(Nc3ccc4c(c3)OCCO4)nc(Nc3ccc4c(c3)OCCO4)nc2[nH]1`: 5.2 µM.
As to `CCC(=O)c1cccc(Nc2nc(N)nc3nc[nH]c23)c1`, the Kd worked out at 2.8 µM. This Kd is about 1.9-fold lower than that of the molecule before.
As to `NC(=O)COc1ccc(Nc2nncc3c(-c4ccc(O)cc4)cccc23)cc1`, the Kd worked out at 2.5 µM.
`Oc1ccc(-c2cccc3c(Nc4cccc(O)c4)nncc23)cc1` displayed a Kd of 5.1 µM.
In turn, `COc1cc(Nc2nc(N)nc3[nH]cnc23)cc(OC)c1` registered a Kd of 3.1 µM.
`CN(C)C(=O)Cc1ccc(-c2cccc3c(Nc4cccc(O)c4)nncc23)cc1` gave a dissociation constant (Kd) of 9.6 µM.
With `Nc1nc(Nc2ccc(F)c(Cl)c2)c2nc[nH]c2n1`, the Kd came out at 3.2 µM.

These data come from ChEMBL document CHEMBL1938317, “Structure-based de novo design and biochemical evaluation of novel BRAF kinase inhibitors” (Bioorg Med Chem Lett, 2012).
